The source of these data is PMC9030254, “Target Hopping from Protein Kinases to PXR: Identification of Small-Molecule Protein Kinase Inhibitors as Selective Modulators of Pregnane X Receptor from TüKIC Library” (Cells, 2022).

Assay in all cases: Kinase profiling
Type in all cases: biochemical

One test has as its target T1, CDK16/CycY (Homo sapiens, UniProt Q00536).
T1 construct: purchased ProQinase (Freiburg, Germany)
As for the experimental part: (§1) The analysis was performed by ProQinase (Freiburg, Germany).

The next test deals with T2, CDK1/CycB1 (Homo sapiens, UniProt P06493).
T2 construct: purchased ProQinase (Freiburg, Germany)
As for the experimental part:
as §1

Another test deals with T3, AKT1 (Homo sapiens, UniProt P31749).
T3 construct: purchased ProQinase (Freiburg, Germany)
As for the experimental part: as §1

The target in a further test is T4, NEK2 (Homo sapiens, UniProt P51955).
T4 construct: purchased ProQinase (Freiburg, Germany)
T4 sequence (P51955 1-445): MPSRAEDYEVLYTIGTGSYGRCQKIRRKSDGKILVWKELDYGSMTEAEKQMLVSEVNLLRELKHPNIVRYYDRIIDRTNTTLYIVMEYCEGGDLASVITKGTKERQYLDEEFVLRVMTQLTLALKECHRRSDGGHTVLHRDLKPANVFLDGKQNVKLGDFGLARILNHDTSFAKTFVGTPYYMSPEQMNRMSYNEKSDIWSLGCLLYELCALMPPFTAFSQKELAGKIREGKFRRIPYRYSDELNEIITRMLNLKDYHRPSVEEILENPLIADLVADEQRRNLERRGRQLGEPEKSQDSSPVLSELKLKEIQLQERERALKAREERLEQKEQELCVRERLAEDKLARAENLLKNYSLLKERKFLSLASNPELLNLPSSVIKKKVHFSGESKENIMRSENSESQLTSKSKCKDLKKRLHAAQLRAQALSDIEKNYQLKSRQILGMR
As for the experimental part:
as §1

The target of a further test is T5, PRKD2 (Homo sapiens, UniProt Q9BZL6).
T5 construct: purchased ProQinase (Freiburg, Germany)
T5 sequence (Q9BZL6 1-878): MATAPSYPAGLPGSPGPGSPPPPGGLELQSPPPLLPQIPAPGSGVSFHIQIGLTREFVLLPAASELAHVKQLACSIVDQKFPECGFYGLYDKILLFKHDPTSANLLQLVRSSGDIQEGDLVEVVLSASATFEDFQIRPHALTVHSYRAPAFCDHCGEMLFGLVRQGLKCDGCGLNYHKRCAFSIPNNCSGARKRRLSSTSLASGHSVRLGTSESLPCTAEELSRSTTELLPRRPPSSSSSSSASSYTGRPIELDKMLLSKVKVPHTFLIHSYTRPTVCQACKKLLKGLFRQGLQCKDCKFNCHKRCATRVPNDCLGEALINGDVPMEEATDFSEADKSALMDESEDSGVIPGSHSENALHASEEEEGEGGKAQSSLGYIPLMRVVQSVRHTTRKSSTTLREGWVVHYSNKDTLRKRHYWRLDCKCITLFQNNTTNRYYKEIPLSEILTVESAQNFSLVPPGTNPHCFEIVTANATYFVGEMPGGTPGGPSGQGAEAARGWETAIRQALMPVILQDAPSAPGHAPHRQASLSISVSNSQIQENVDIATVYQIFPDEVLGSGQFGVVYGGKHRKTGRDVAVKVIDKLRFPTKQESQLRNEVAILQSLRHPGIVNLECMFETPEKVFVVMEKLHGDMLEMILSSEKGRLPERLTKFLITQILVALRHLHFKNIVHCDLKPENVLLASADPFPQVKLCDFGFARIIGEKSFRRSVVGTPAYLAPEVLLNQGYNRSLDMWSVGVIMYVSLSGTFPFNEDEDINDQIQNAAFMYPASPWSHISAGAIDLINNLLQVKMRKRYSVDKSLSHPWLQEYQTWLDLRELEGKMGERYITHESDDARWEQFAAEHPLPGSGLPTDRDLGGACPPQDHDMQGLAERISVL
The procedure: as §1

The target of another test is T6, EPHA1 (Homo sapiens, UniProt P21709).
T6 construct: purchased ProQinase (Freiburg, Germany)
T6 sequence (P21709 26-976): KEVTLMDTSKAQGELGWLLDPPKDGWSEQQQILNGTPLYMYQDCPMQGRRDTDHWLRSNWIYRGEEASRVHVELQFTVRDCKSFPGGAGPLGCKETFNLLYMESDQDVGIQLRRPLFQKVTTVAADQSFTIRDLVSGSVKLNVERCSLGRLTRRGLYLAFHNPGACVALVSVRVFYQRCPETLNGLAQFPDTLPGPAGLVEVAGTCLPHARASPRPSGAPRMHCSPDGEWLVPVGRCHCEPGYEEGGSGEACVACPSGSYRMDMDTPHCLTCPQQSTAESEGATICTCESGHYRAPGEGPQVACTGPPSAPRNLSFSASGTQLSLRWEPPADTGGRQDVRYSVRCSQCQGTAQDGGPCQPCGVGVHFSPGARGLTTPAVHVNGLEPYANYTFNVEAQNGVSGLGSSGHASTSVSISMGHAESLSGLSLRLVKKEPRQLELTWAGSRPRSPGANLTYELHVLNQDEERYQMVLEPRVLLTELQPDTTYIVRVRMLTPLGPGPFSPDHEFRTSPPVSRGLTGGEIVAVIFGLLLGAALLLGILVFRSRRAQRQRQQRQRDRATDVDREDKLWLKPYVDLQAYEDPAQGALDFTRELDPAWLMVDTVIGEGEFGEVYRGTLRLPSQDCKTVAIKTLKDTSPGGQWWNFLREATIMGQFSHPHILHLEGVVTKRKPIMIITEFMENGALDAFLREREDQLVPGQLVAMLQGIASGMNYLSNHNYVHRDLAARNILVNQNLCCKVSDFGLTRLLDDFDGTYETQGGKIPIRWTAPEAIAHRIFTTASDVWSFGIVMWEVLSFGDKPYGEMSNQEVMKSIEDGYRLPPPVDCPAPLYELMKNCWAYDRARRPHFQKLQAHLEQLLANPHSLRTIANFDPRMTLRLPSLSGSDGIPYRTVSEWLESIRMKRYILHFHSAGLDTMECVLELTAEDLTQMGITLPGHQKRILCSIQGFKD
The procedure:
as §1

In a further test the target is T7, CK2alpha2 (Homo sapiens, UniProt P19784).
T7 construct: purchased ProQinase (Freiburg, Germany)
As for the experimental part:
as §1

For a further test, the target named is T8, ACK1 (Homo sapiens, UniProt Q07912).
T8 construct: purchased ProQinase (Freiburg, Germany)
The procedure:
as §1

T2 sequence (P06493 whole entry): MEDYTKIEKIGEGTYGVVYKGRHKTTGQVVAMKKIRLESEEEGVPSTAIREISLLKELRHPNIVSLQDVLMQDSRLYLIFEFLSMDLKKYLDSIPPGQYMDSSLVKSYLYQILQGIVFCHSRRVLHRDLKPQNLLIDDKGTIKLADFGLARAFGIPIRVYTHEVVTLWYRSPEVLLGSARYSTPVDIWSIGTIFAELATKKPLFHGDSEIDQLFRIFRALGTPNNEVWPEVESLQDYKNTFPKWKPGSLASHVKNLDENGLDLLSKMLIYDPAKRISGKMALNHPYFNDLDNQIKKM
T2 sequence (P14635 whole entry partner): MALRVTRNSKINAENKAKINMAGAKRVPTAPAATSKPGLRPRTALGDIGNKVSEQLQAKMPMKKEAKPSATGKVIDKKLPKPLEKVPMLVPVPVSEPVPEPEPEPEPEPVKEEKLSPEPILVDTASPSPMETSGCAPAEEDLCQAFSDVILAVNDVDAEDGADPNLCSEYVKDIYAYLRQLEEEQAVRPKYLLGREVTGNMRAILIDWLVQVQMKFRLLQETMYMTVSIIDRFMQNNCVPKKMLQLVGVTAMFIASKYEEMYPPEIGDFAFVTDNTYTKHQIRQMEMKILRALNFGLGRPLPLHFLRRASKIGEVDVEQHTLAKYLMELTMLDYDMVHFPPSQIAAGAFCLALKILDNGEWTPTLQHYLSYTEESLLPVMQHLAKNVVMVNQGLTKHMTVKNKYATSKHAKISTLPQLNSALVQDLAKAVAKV
T8 sequence (Q07912 whole entry): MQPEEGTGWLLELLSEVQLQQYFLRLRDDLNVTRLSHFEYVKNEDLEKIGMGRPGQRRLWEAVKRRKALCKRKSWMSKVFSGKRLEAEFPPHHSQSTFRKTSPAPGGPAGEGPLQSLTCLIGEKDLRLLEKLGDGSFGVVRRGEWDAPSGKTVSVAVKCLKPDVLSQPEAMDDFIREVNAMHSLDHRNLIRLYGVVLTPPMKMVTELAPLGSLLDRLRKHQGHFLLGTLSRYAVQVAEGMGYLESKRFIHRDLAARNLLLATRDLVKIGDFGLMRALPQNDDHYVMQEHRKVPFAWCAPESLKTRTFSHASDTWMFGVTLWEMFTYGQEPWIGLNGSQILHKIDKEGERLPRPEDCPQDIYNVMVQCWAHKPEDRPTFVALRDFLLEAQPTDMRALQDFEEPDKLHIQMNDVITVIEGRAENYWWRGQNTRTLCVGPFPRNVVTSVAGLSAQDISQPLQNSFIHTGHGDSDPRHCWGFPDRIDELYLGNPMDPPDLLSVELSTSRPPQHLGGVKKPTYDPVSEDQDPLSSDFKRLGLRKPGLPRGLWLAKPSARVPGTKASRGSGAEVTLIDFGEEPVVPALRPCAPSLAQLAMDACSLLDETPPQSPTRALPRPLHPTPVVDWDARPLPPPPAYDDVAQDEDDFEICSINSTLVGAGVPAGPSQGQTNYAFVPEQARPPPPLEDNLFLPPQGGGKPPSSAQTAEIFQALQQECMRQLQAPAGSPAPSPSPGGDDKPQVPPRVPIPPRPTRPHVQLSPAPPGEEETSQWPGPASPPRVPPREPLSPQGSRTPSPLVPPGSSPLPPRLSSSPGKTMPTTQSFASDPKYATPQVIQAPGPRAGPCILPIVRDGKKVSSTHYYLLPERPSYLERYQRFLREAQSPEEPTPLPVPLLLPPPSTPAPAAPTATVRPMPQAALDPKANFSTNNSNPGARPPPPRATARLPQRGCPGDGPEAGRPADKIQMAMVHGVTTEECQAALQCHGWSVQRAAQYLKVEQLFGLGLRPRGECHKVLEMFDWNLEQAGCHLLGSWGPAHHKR
T1 sequence (Q00536 whole entry): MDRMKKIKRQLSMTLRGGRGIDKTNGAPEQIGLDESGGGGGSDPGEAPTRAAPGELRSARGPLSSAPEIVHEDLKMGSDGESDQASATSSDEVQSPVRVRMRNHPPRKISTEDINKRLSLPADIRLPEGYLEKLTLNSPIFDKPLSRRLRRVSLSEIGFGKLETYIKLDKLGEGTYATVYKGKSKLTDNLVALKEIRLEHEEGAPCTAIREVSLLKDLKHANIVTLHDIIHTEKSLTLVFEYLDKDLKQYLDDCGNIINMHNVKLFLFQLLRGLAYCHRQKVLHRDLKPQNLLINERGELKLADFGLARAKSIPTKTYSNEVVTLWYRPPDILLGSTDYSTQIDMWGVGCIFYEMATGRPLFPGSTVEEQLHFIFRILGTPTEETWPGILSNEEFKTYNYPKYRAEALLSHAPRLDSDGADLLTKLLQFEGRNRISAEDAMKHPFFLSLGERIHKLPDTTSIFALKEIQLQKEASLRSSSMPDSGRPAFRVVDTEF
T1 sequence (Q8ND76 whole entry partner): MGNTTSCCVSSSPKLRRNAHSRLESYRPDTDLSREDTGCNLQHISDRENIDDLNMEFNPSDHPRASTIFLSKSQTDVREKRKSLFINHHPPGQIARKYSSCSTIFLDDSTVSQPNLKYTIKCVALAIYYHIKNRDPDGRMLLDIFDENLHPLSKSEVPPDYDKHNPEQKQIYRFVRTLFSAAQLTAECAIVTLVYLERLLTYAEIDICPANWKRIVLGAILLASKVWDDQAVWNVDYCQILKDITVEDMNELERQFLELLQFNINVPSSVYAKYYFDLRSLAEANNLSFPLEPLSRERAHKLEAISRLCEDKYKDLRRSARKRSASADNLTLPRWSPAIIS
T3 sequence (P31749 whole entry): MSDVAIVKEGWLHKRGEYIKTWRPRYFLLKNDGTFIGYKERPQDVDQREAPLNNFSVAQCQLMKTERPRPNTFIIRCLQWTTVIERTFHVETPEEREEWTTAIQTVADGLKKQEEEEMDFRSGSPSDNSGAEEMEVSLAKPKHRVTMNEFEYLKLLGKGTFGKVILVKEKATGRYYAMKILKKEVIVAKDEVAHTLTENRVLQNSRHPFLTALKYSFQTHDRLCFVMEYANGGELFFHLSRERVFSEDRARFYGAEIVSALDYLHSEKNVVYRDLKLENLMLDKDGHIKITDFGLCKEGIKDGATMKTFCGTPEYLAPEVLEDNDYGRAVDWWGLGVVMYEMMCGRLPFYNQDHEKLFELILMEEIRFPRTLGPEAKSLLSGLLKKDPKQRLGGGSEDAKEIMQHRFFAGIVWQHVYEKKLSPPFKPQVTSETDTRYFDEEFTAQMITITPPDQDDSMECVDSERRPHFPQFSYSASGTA
T7 sequence (P19784 whole entry): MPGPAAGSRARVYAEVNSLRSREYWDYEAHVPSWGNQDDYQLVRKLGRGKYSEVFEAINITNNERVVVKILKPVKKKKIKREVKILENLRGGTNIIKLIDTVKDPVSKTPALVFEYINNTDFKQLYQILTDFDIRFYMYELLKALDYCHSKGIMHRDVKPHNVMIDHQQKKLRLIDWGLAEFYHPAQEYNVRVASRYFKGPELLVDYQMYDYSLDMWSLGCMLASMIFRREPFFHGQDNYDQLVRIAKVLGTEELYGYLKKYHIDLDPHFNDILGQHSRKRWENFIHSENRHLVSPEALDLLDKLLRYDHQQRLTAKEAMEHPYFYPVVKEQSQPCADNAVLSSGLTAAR

Consider `O=C(Cc1ccccc1)Nc1ccc(F)c(Nc2ccc3c(c2)CCCCC3=O)c1` [Compound 100], for which the Residual activity at CDK16/CycY (1.0E-05 M) was 101 % of control; at CDK16/CycY (1.0E-06 M), 99 % of control; at CDK1/CycB1 (1.0E-05 M), 100 % of control; at CDK1/CycB1 (1.0E-06 M), 107 % of control; on AKT1 (1.0E-05 M) it was 88 % of control; on AKT1 (1.0E-06 M), 99 % of control. Also, the Residual activity is listed as 97 % of control on NEK2 (1.0E-05 M); 105 % of control at NEK2 (1.0E-06 M); 92 % of control at PRKD2 (1.0E-05 M); 87 % of control at PRKD2 (1.0E-06 M); 71 % of control at EPHA1 (1.0E-05 M); 83 % of control at EPHA1 (1.0E-06 M). The Residual activity is on record as 134 % of control at CK2alpha2 (1.0E-05 M), 137 % of control on CK2alpha2 (1.0E-06 M), 92 % of control on ACK1 (1.0E-05 M) and 112 % of control at ACK1 (1.0E-06 M).
As for `O=C(Nc1ccc(F)c(Nc2ccc3c(c2)CCCCC3=O)c1)c1cccc(F)c1` [Compound 109], the Residual activity on CDK16/CycY (1.0E-05 M) is on record as 100 % of control; on CDK16/CycY (1.0E-06 M) it was 96 % of control; on CDK1/CycB1 (1.0E-05 M), 114 % of control; at CDK1/CycB1 (1.0E-06 M) it was 106 % of control; on AKT1 (1.0E-05 M), 97 % of control; at AKT1 (1.0E-06 M) it was 101 % of control. The Residual activity is on record as 101 % of control on NEK2 (1.0E-05 M); 96 % of control at NEK2 (1.0E-06 M); 81 % of control at PRKD2 (1.0E-05 M); 82 % of control on PRKD2 (1.0E-06 M); 85 % of control on EPHA1 (1.0E-05 M); 91 % of control at EPHA1 (1.0E-06 M). Besides, the Residual activity on CK2alpha2 (1.0E-05 M) is 118 % of control; on CK2alpha2 (1.0E-06 M), 119 % of control; on ACK1 (1.0E-05 M), 89 % of control; on ACK1 (1.0E-06 M), 96 % of control.
